# Reference: patent publication US10774064B2 (Cadent Therapeutics, Inc., priority 2016, dated 2020)
# Target: T1, small-conductance Ca2+-activated K+ channels (SK channels, subtype 2) (Homo sapiens, UniProt Q9H2S1)
# T1 construct: expressed in transfected cells; host or cells: HEK293
# Assay: whole-cell patch-clamp of ionic current through SK2 channels in HEK293 cells (SC100)
# Assay type: cell-based
# Settings: concentration that increases the basal current by 100%; HEK293 cells expressing SK2 channels
# Procedure, shortened: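 SC100, the concentration doubling basal current (a 100% increase), was taken from SK2 currents recorded by whole-cell patch-clamp in SK2-expressing HEK293 cells.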
row,SC100,SMILES
1,+ (+ means >1 uM),"Cc1cc(C)n(-c2nc(C#N)cc(NC3CCC(F)(F)C3)n2)n1 (centres unmarked) [Compound 184, 6-((3,3-difluorocyclopentyl)amino)-2-(3,5-dimethyl-1H-pyrazol-1-yl)pyrimidine-4-carbonitrile]"
2,++ (++ means 200 nM-1000 nM),"FCc1ccn(-c2nc(NC3CCC(F)(F)CC3)cc(N3CC4(COC4)C3)n2)n1 [Compound 338, N-(4,4-difluorocyclohexyl)-2-(3-(fluoromethyl)-1H-pyrazol-1-yl)-6-(2-oxa-6-azaspiro[3.3]heptan-6-yl)pyrimidin-4-amine]"
3,+ (+ means >1 uM),"Cc1ccn(-c2nc(NC3CCC(F)(F)CC3)cc(N3CC4C(N)C4C3)n2)n1 (centres unmarked) [Compound 155, 3-(6-((4,4-difluorocyclohexyl)amino)-2-(3-methyl-1H-pyrazol-1-yl)pyrimidin-4-yl)-3-azabicyclo[3.1.0] hexan-6-amine]"
4,+ (+ means >1 uM),"FCc1ccn(-c2nc(NC3CCC(F)(F)CC3)cc(OC3COC3)n2)n1 [Compound 285, N-(4,4-difluorocyclohexyl)-2-(3-(fluoromethyl)-1H-pyrazol-1-yl)-6-(oxetan-3-yloxy)pyrimidin-4-amine]"
5,++ (++ means 200 nM-1000 nM),"CCc1cc(-n2nc(C)cc2C)nc(NC2CCC(F)(F)CC2)n1 [Compound 169, N-(4,4-difluorocyclohexyl)-4-(3,5-dimethyl-1H-pyrazol-1-yl)-6-ethylpyrimidin-2-amine]"
6,++ (++ means 200 nM-1000 nM),"Cc1csc(-c2nc(NC3CCC(F)(F)CC3)cc([C@H](C)O)n2)n1 (single isomer, unassigned) [Compound 363]"
7,++ (++ means 200 nM-1000 nM),"Cc1ccn(-c2nc(NC3CCC(F)(F)CC3)cc(N3CC(N(C)C)C3)n2)n1 [Compound 143, N-(4,4-difluorocyclohexyl)-6-(3-(dimethylamino)azetidin-1-yl)-2-(3-methyl-1H-pyrazol-1-yl)pyrimidin-4-amine]"
8,+ (+ means >1 uM),"Cc1cc(C)n(-c2cc(N(C)C3COC3)cc(N(C)C3CCC(F)(F)CC3)n2)n1 [Compound 240, N2-(4,4-difluorocyclohexyl)-6-(3,5-dimethyl-1H-pyrazol-1-yl)-N2,N4-dimethyl-N4-(oxetan-3-yl)pyridine-2,4-diamine]"
9,+ (+ means >1 uM),"Cc1cc(NC2CCC(F)(F)CC2)nc(-c2nc(C3CC3)cs2)n1 [Compound 267, 2-(4-cyclopropylthiazol-2-yl)-N-(4,4-difluorocyclohexyl)-6-methylpyrimidin-4-amine]"

# Same assay, conditions: whole-cell patch-clamp, HEK293 cells expressing SK2 channels; concentration that increases the basal current by 100%
row,SC100 (μM),SMILES
1,++ (++ means 200 nM-1000 nM),"Cc1cc(C)n(-c2nc(NC3CCC(F)(F)CC3)cc(N3CCOC(C#N)C3)n2)n1 (centres unmarked) [IN10971-081-P1, 4-(6-((4,4-difluorocyclohexyl)amino)-2-(3,5-dimethyl-1H-pyrazol-1-yl)pyrimidin-4-yl) morpholine-2-carbonitrile]"
2,+ (+ means >1 uM),"Cc1csc(-c2nc(NC3CCC(F)(F)CC3)c(O)c(=O)[nH]2)n1 [IN11039-094-P1, 6-((4,4-difluorocyclohexyl)amino)-2-(4-methylthiazol-2-yl) pyrimidine-4,5-diol]"
3,++ (++ means 200 nM-1000 nM),Cc1csc(-c2nc(NC3CCC(F)(F)CC3)cc(N3C[C@@H]4C[C@H]3CO4)n2)n1 [NSSy6171]
4,+ (+ means >1 uM),"CCC(O)c1ccn(-c2nc(C)cc(NC3CCC(F)(F)CC3)n2)n1 (centres unmarked) [IN11251-011-P2, 1-(1-(4-((4,4-difluorocyclohexyl)amino)-6-methylpyrimidin-2-yl)-1H-pyrazol-3-yl)propan-1-ol]"
5,+ (+ means >1 uM),"CCOCCc1cc(NC2CCC(F)(F)CC2)nc(-n2ccc(C3CC3)n2)n1 [IN11217-069-P1, 2-(3-cyclopropyl-1H-pyrazol-1-yl)-N-(4,4-difluorocyclohexyl)-6-(2-ethoxyethyl)pyrimidin-4-amine]"
6,+++ (+++ means <200 nM),Cc1csc(-c2nc(NC3CCC(F)(F)CC3)cc(OC3CN(C(=O)C(C)C)C3)n2)n1 [NSSy5629]
7,++ (++ means 200 nM-1000 nM),"COC(=O)NCc1cc(NC2CCC(F)(F)CC2)nc(-n2ccc(CF)n2)c1 [NSSy5653, methyl ((2-((4,4-difluorocyclohexyl)amino)-6-(3-(fluoromethyl)-1H-pyrazol-1-yl)pyridin-4-yl)methyl)carbamate]"
8,+ (+ means >1 uM),Cc1ccn(-c2nc(N[C@H]3C[C@@H]4CC[C@H]3O4)cc(N3CCOCC3)n2)n1 [NSSy6446]
9,++ (++ means 200 nM-1000 nM),"Cc1nsc(-c2nc(NC3CCCCC3)cc(N3CCS(=O)(=O)CC3)n2)n1 [NSSy6202, 4-(6-(cyclohexylamino)-2-(3-methyl-1,2,4-thiadiazol-5-yl)pyrimidin-4-yl)thiomorpholine 1,1-dioxide]"
10,++ (++ means 200 nM-1000 nM),"Cc1ccn(-c2cc(COC(N)=O)cc(NC3CCC(F)(F)CC3)n2)n1 [NSSy6891, (2-((4,4-difluorocyclohexyl)amino)-6-(3-methyl-1H-pyrazol-1-yl)pyridin-4-yl)methyl carbamate]"
11,++ (++ means 200 nM-1000 nM),"COC(=O)N(C)C1CC(Oc2cc(NC3CCC(F)(F)CC3)nc(-n3ccc(C)n3)n2)C1 (centres unmarked) [NSSy5672, methyl (3-((6-((4,4-difluorocyclohexyl)amino)-2-(3-methyl-1H-pyrazol-1-yl)pyrimidin-4-yl)oxy)cyclobutyl)(methyl)carbamate]"
12,+++ (+++ means <200 nM),"Cc1csc(-c2cc(N3CCN(C)C(=O)C3)cc(NC3CCC(F)(F)CC3)n2)n1 [NSSy5674, 4-(2-((4,4-difluorocyclohexyl)amino)-6-(4-methylthiazol-2-yl)pyridin-4-yl)-1-methylpiperazin-2-one]"
13,+++ (+++ means <200 nM),Cc1ccn(-c2cc(OCc3cnco3)cc(NC3CCC(F)(F)CC3)n2)n1 [IN11177-056-P1]
14,+ (+ means >1 uM),"COC(=O)N1CC(Oc2cc(NC3CCC(F)(F)CC3)nc(-c3nc(CO)cs3)n2)C1 [NSSy6049, methyl 3-((6-((4,4-difluorocyclohexyl)amino)-2-(4-(hydroxymethyl)thiazol-2-yl)pyrimidin-4-yl)oxy)azetidine-1-carboxylate]"
15,++ (++ means 200 nM-1000 nM),"NC(=O)OCc1cc(NC2CCC(F)(F)CC2)nc(-n2ccc(C3CC3)n2)n1 [IN11239-001-P1, (2-(3-cyclopropyl-1H-pyrazol-1-yl)-6-((4,4-difluorocyclohexyl)amino)pyrimidin-4-yl)methyl carbamate]"
16,+++ (+++ means <200 nM),"Cc1csc(-c2cc(C(C)O)cc(NC3CCC(F)(F)CC3)n2)n1 (centres unmarked) [IN11130-051-P1, 1-(2-((4,4-difluorocyclohexyl)amino)-6-(4-methylthiazol-2-yl)pyridin-4-yl) ethan-1-ol]"
17,++ (++ means 200 nM-1000 nM),COc1cc(NC2CCC(F)(F)CC2)nc(-c2nc(C)cs2)c1 [IN11146-013-P1]
18,++ (++ means 200 nM-1000 nM),"Cc1ccn(-c2cc(N3CCOCC3)cc(NC3CC=CCC3)n2)n1 (centres unmarked) [NSSy5759, N-(cyclohex-3-en-1-yl)-6-(3-methyl-1H-pyrazol-1-yl)-4-morpholino pyridin-2-amine]"

row,SMILES,SC100 (μM)
1,Cc1csc(-c2cc(OCc3ncn(C)n3)cc(NC3CCC(F)(F)CC3)n2)n1 [NSSy5686],++ (++ means 200 nM-1000 nM)
2,[2H]C1([2H])OC([2H])([2H])C([2H])([2H])N(c2cc(NC3CCC(F)(F)CC3)nc(-n3ccc(C)n3)n2)C1([2H])[2H] [IN11196-039-P1],++ (++ means 200 nM-1000 nM)
